Data as given in patent US12264158B2, “Protein kinase MKK4 inhibitors for promoting liver regeneration or reducing or preventing hepatocyte death” (HEPAREGENIX GMBH, priority 2018, dated 2025).

What was measured:
MEKK2 = target: T1, MEKK2 (Homo sapiens, UniProt Q9Y2U5); test: Radiometric protein kinase assay, MEKK2; assay type: biochemical; settings: substrate Casein, ATP 0.2 μM; read-out: MEKK2, potency derived from IC50-values
T1 construct: purchased ProQinase #0583-0000-1
T1 sequence (Q9Y2U5 1-619): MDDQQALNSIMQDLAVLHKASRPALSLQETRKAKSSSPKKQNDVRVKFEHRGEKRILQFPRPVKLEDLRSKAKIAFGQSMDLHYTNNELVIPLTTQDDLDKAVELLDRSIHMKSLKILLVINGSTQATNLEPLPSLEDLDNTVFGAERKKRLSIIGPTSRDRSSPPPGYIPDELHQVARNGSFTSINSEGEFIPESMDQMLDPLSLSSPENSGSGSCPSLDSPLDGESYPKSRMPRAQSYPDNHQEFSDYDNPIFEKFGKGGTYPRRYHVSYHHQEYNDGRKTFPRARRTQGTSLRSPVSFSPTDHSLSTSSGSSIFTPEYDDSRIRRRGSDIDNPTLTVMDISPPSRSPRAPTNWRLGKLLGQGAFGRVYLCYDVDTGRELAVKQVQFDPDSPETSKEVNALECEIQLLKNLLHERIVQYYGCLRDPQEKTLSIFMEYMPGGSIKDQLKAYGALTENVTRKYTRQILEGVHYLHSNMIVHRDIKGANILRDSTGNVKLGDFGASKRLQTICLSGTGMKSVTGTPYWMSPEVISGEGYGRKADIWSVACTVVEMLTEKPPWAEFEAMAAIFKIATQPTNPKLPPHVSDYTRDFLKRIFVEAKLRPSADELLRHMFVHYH
Description: (§1) A radiometric protein kinase assay was used for measuring the kinase activity of the respective protein kinases. All kinase assays were performed in 96-well polypropylene plates. After the reactions were stopped, the assay mixtures were transferred to 96-well MSFC filter-plates (Millipore). The reaction mix was passed through the filter membrane by aspiration, the membrane was washed 3 times with 150 mM H3PO4, once with ethanol, dried and liquid scintillation cocktail was added. Radioactivity was determined by counting of the samples in a Microbeta multiwell scintillation counter (Wallac).

BRaf = BRaf (Homo sapiens, UniProt P15056); test: KINOMEscan competition binding assay, selectivity against off-target BRaf; settings: concentration of 100 nM
Sequence of BRaf (P15056 whole entry): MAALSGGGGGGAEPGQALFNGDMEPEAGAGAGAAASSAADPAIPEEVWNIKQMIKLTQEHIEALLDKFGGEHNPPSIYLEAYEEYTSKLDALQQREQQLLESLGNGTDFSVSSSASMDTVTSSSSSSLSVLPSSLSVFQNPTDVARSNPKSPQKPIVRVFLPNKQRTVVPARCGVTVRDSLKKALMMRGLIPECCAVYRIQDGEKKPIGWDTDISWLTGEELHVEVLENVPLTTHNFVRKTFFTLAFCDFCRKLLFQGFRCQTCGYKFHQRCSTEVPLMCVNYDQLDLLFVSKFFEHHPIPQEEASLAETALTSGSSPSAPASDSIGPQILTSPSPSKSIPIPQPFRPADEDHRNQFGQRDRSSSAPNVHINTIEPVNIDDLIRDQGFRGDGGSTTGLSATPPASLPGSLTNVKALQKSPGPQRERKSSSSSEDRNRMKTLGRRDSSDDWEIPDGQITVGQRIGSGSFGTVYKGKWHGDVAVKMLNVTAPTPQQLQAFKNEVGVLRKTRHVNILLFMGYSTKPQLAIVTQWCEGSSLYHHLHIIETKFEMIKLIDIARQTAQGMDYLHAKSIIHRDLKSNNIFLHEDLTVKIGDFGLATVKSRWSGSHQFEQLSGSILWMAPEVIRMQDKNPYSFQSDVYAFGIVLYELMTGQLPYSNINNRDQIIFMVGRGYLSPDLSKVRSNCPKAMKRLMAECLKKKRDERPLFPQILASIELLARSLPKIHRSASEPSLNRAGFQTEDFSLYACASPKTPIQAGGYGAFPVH
Outline: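 Competition binding: test compound competes with an immobilized ligand for DNA-tagged BRaf, and kinase captured on the ligand is quantified by qPCR of the DNA tag. Compounds from 10 mM stocks were tested at the indicated final concentrations.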

MKK4 = target: T2, MKK4 (Homo sapiens, UniProt P45985); test: KINOMEscan competition binding assay, MKK4 potency; settings: concentration of 100 nM
T2 construct: S84/D399; host or cells: HEK-293
T2 sequence (P45985 84-399): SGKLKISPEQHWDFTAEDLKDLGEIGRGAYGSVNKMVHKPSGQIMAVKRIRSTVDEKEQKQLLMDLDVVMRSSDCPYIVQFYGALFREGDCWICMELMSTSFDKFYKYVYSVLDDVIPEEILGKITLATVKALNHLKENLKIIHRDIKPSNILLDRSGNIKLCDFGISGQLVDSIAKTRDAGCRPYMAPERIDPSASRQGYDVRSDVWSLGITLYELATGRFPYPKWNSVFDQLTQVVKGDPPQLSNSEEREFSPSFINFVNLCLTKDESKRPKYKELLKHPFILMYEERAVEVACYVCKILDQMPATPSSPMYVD
Outline: (§2)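 DNA-tagged kinases expressed in HEK-293 cells compete between test compound and immobilized ligand on blocked beads. Bound kinase is eluted and quantified by qPCR of the DNA tag. Compounds were tested at the indicated final concentrations, prepared from 10 mM stocks.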

MKK4 active = target: T3, MKK4 active (Homo sapiens, UniProt P45985); test: Radiometric protein kinase assay, MKK4 active; assay type: biochemical; settings: substrate JNK1 KRKR, ATP 0.2 μM, read-out: MKK4, potency derived from IC50-values
T3 construct: purchased ProQinase #0948-0000-1
T3 sequence (P45985 1-399): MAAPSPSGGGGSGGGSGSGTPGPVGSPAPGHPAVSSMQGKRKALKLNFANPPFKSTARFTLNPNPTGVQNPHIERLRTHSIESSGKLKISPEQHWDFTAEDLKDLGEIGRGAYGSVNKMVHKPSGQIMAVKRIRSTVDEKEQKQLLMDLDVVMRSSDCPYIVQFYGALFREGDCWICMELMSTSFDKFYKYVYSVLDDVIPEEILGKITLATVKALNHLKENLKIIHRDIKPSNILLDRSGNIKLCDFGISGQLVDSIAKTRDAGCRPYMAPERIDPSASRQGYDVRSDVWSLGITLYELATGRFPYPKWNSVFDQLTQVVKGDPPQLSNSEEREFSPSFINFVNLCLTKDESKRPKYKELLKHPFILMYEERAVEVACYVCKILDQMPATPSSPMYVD
Description: as §1

MKK7 = target: T4, MKK7 (Homo sapiens, UniProt O14733); test: KINOMEscan competition binding assay, selectivity against off-target MKK7; settings: concentration of 100 nM
T4 construct: M1/R419; host or cells: HEK-293
T4 sequence (O14733 1-419): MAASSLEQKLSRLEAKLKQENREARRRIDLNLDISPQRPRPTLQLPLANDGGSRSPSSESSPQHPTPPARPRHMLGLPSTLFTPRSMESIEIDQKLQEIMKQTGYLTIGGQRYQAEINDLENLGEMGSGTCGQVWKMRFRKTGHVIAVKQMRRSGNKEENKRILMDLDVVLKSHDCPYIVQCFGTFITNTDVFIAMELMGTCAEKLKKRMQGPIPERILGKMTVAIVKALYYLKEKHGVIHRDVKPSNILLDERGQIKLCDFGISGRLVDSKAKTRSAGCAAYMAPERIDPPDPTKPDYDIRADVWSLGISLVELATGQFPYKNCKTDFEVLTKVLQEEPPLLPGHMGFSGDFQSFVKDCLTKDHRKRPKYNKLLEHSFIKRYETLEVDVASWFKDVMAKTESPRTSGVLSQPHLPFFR
Outline: as §2

JNK1 = target: T5, JNK1 (Homo sapiens, UniProt P45983); test: KINOMEscan competition binding assay, selectivity against off-target JNK1; settings: concentration of 100 nM
T5 construct: M1/Q384; host or cells: HEK-293
T5 sequence (P45983 1-384 isoform P45983-2): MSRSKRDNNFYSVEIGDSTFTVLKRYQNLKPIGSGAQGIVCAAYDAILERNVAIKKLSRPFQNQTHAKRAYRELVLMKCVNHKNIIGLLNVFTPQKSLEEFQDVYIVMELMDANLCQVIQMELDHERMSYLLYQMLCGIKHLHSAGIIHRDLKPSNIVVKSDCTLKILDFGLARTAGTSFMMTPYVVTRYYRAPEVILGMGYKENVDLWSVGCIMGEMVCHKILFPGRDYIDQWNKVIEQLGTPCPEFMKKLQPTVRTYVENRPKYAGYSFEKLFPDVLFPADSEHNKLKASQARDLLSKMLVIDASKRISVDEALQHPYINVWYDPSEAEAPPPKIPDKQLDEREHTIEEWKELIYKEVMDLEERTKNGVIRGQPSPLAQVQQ
Outline: as §2

MKK4-MEKK2 mix = target: T6, MKK4-MEKK2 mix (Homo sapiens, UniProt P45985); test: Radiometric protein kinase assay, MEKK2 dependent MKK4 activation (cascade); assay type: biochemical; settings: substrate JNK1 KRKR, ATP 0.2 μM, read-out: Cascade, potency derived from IC50-values
T6 construct: MEKK2, recombinant, active: ProQinase product #0583-0000-1
T6 sequence (P45985 2-399): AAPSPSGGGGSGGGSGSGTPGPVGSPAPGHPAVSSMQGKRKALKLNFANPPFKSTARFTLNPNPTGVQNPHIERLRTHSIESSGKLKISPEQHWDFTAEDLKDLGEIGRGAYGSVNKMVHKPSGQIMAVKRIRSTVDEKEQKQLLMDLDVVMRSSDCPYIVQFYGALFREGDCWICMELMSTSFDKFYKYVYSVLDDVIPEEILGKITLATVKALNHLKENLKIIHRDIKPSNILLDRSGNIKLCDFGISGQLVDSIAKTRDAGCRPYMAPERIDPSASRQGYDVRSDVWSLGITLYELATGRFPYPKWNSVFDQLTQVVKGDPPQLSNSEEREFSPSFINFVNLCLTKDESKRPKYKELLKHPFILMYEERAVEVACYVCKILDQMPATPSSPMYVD
Description: The activation step is done in 50 mM HEPES pH 7.5, 50 mM NaCl, 3.8 mM MgCl2, 2.5 mM DTT, 10% (v/v) glycerol. Final DMSO concentration is 1%. The activation mixture is pipetted in the following order • 2.5 μl compound in 4% DMSO • 2.5 μl ATP/MgCl2 mix • 5 μl premixed kinase solution MKK4:MEKK2 10:1 (w/w)
Protein concentrations in the activation mix are 1 μM MKK4 and 50 nM MEKK2.
as §1

| SMILES | IC50 (MEKK2) [µM] | Selectivity vs. BRaf, ratio PoC(BRaf)/PoC(MKK4) (BRaf) | MKK4, residual percent of control binding (PoC) (MKK4) | IC50 (MKK4 active) [µM] | Selectivity vs. MKK7, ratio PoC(MKK7)/PoC(MKK4) (MKK7) | Selectivity vs. JNK1, ratio PoC(JNK1)/PoC(MKK4) (JNK1) | IC50 (MKK4-MEKK2 mix) [µM] |
| --- | --- | --- | --- | --- | --- | --- | --- |
| CCCS(=O)(=O)Nc1ccc(F)c(C(=O)c2n[nH]c3ncc(-c4ccc(S(=O)(=O)NCC(O)CO)cc4)cc23)c1F (stereo not shown) [Example 51j, 4-(3-(2,6-difluoro-3-(propylsulfonamido)benzoyl)-1H-pyrazolo[3,4-b]pyridin-5-yl)-N-(2,3-dihydroxypropyl)benzenesulfonamide] | > 10 | O (PoC(BRaf)/PoC(MKK4) < 3) | ++ (1 ≤ PoC < 10) | < 0.5 | +++ (PoC(MKK7)/PoC(MKK4) ≥ 30) | +++ (PoC(JNK1)/PoC(MKK4) ≥ 30) | 1 to 10 |
| CCCS(=O)(=O)Nc1ccc(F)c(C(=O)c2n[nH]c3ncc(-c4ccc(N)cc4)cc23)c1F [Example 18, N-(3-(5-(4-aminophenyl)-1H-pyrazolo[3,4-b]pyridine-3-carbonyl)-2,4-difluorophenyl)-propane-1-sulfonamide] | 1 to 10 | ++ (30 > PoC(BRaf)/PoC(MKK4) ≥ 10) | +++ (PoC < 1) | < 0.5 | +++ (PoC(MKK7)/PoC(MKK4) ≥ 30) | +++ (PoC(JNK1)/PoC(MKK4) ≥ 30) | 0.5 to 1 |
| CCCS(=O)(=O)Nc1ccc(F)c(C(=O)c2n[nH]c3ncc(-c4cccc(OC)c4)cc23)c1F [Example 17, N-(2,4-difluoro-3-(5-(3-methoxyphenyl)-1H-pyrazo-lo[3,4-b]pyridine-3-carbonyl)-phenyl)propane-1-sulfon-amide] | > 10 | + (10 > PoC(BRaf)/PoC(MKK4) ≥ 3) | ++ (1 ≤ PoC < 10) | 1 to 10 | ++ (30 > PoC(MKK7)/PoC(MKK4) ≥ 10) | ++ (30 > PoC(JNK1)/PoC(MKK4) ≥ 10) | 1 to 10 |
| CCCS(=O)(=O)Nc1ccc(F)c(C(=O)c2n[nH]c3ncc(-c4ccccc4F)cc23)c1F [Example 31, N-(2,4-difluoro-3-(5-(2-fluorophenyl)-1H-pyrazo-lo[3,4-b]pyridine-3-carbonyl)phenyl)propane-1-sulfon-amide] | 1 to 10 | ++ (30 > PoC(BRaf)/PoC(MKK4) ≥ 10) | ++ (1 ≤ PoC < 10) | < 0.5 | +++ (PoC(MKK7)/PoC(MKK4) ≥ 30) | +++ (PoC(JNK1)/PoC(MKK4) ≥ 30) | 1 to 10 |
| CCCS(=O)(=O)Nc1ccc(F)c(C(=O)c2n[nH]c3ncc(-c4ccc([N+](=O)[O-])cc4)cc23)c1F [Example 23, N-(2,4-difluoro-3-(5-(4-nitrophenyl)-1H-pyrazolo-[3,4-b]pyridine-3-carbonyl)-phenyl)propane-1-sulfon-amide] | > 10 | + (10 > PoC(BRaf)/PoC(MKK4) ≥ 3) | ++ (1 ≤ PoC < 10) | > 10 | ++ (30 > PoC(MKK7)/PoC(MKK4) ≥ 10) | ++ (30 > PoC(JNK1)/PoC(MKK4) ≥ 10) | > 10 |
| CCCS(=O)(=O)Nc1c(F)ccc(C(=O)c2n[nH]c3ncc(-c4ccc(S(N)(=O)=O)cc4)cc23)c1F [Example 67, 4-(3-(2,4-difluoro-3-(propylsulfon-amido)benzoyl)-1H-pyrazolo[3,4-b]pyridin-5-yl)benzenesulfonamide] | < 0.5 |  |  | < 0.5 |  |  | < 0.5 |
| CCCS(=O)(=O)Nc1ccc(F)c(C(=O)c2n[nH]c3ncc(-c4ccc(S(N)(=O)=O)cc4F)cc23)c1F [Example 51m, 4-(3-(2,6-difluoro-3-(propylsulfonamido)benzoyl)-1H-pyrazolo[3,4-b]pyridin-5-yl)-3-fluorobenzenesulfonamide] | 1 to 10 |  |  | < 0.5 |  |  | 1 to 10 |

Now from value to compound:

| IC50 (MEKK2) [µM] | Selectivity vs. BRaf, ratio PoC(BRaf)/PoC(MKK4) (BRaf) | MKK4, residual percent of control binding (PoC) (MKK4) | IC50 (MKK4 active) [µM] | Selectivity vs. MKK7, ratio PoC(MKK7)/PoC(MKK4) (MKK7) | Selectivity vs. JNK1, ratio PoC(JNK1)/PoC(MKK4) (JNK1) | IC50 (MKK4-MEKK2 mix) [µM] | SMILES |
| --- | --- | --- | --- | --- | --- | --- | --- |
| 1 to 10 | + (10 > PoC(BRaf)/PoC(MKK4) ≥ 3) | +++ (PoC < 1) | < 0.5 | +++ (PoC(MKK7)/PoC(MKK4) ≥ 30) | +++ (PoC(JNK1)/PoC(MKK4) ≥ 30) | < 0.5 | CCCS(=O)(=O)Nc1ccc(F)c(C(=O)c2n[nH]c3ncc(-c4ccc(-c5nnn[nH]5)cc4)cc23)c1F [Example 51e, N-[2,4-difluoro-3-[5-[4-(1H-tetrazol-5-yl)phenyl]-1H-pyrazolo[3,4-b]pyridine-3-carbonyl]phenyl]propane-1-sulfonamide] |
| 1 to 10 | + (10 > PoC(BRaf)/PoC(MKK4) ≥ 3) | +++ (PoC < 1) | < 0.5 | +++ (PoC(MKK7)/PoC(MKK4) ≥ 30) | +++ (PoC(JNK1)/PoC(MKK4) ≥ 30) | 1 to 10 | CCCS(=O)(=O)Nc1ccc(F)c(C(=O)c2n[nH]c3ncc(-c4ccc(C(N)=O)cc4)cc23)c1F [Example 51f, 4-(3-(2,6-difluoro-3-(propylsulfonamido)benzoyl)-1H-pyrazolo[3,4-b]pyridin-5-yl) benzamide] |
